We go through 12 molecules from ChEMBL document CHEMBL1201862, “PubChem BioAssay data set” (2004).

Common to all, as to assay: NCI tumour cell line growth inhibition, 48 h
Assay [1] relates to NCI-H23.
In assay [2] the test system is RXF 393.
In assay [3] the test system is SF-295.
Assay [4] relates to HOP-92.
The subject of assay [5] is SNB-75.
For assay [6], the system named is M14.
The subject of assay [7] is U-251.
The subject of assay [8] is OVCAR-4.
The subject of assay [9] is CAKI-1.
In assay [10] the test system is OVCAR-3.
In assay [11] the test system is SK-MEL-5.
In assay [12] the test system is EKVX.
Assay [13] relates to M19-MEL.
In assay [14] the test system is DMS-114.
In assay [15] the test system is Malme-3M.
In assay [16] the test system is HOP-18.
Assay [17] concerns KM-20L2.
Assay [18] deals with XF498.
The test system of assay [19] is DLD-1.
Assay [20] concerns DMS-273.

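Where inhibition never reached the appropriate level, the endpoint shown equals the highest concentration tested. Otherwise, values were interpolated linearly from a five-concentration, 48-hour dose response in 96-well plates. At the GI50, growth is halved.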 Active and inactive are the calls of the source. Rule as the data show it: active = GI50 up to about 1.1 µM and inactive = higher. Where only a bound is given, the exact number is not on record here.

On to `COC1/C=C/C=C(/C)Cc2cc(O)c(Cl)c(c2)N(C)C(=O)CC(OC(=O)C(C)C)C2(C)OC2C(C)C2CC1(O)NC(=O)O2` (stereo not given), for which the GI50 was < 0.01 µM (active) in assay [1]; < 0.01 µM (active) in assay [2]; < 0.01 µM (active) in assay [3]; 64.9 µM (inactive) in [4]; < 0.01 µM (active) in assay [5]; < 0.01 µM (active) in assay [6]. The GI50 in [7] is < 0.01 µM (active); in assay [8], < 0.01 µM (active); in [9] it was 21.2 µM (inactive); in [10], < 0.01 µM (active); in assay [11], < 0.01 µM (active).
Take `CC(C)N/C(N)=N/C#N`: the GI50 in assay [12], in assay [13], in [14], in assay [15], in assay [16] and in assay [3] was > 100 µM (inactive) each time. Also, the GI50 in assay [17], in assay [5], in assay [18], in [6], in assay [8] and in [19] was > 100 µM (inactive) each time. The GI50 in [9] and in assay [10] was > 100 µM (inactive) each time.
Consider `COC(=O)N1CC2C3C4CC(C(c5ccccc5)=C4c4ccccc4)C3C21` (stereo not given), for which the GI50 in [12] was 13.2 µM (inactive); in assay [1] it was 20.9 µM (inactive); in assay [2], 17.7 µM (inactive); in assay [3], 13.4 µM (inactive); in [4] it was 11.7 µM (inactive); in assay [5] it was 21.8 µM (inactive). For the same molecule, the GI50 in assay [6] is 26.8 µM (inactive); in assay [7], 13.2 µM (inactive); in [8], 13.1 µM (inactive); in [9], 12.6 µM (inactive); in assay [10] it was 15.5 µM (inactive); in assay [11], 11.5 µM (inactive).
With `O=[N+]([O-])c1cnccc1-n1nnc2ccccc21`, the GI50 was 22 µM (inactive) in assay [12]; 14.1 µM (inactive) in assay [20]; 15.3 µM (inactive) in assay [13]; 18.2 µM (inactive) in assay [1]; 11.5 µM (inactive) in [14]; 17.3 µM (inactive) in assay [15]. In addition, the GI50 was 17.3 µM (inactive) in assay [2]; 14.1 µM (inactive) in assay [16]; 20.2 µM (inactive) in assay [3]; 29.2 µM (inactive) in [17]; 18.8 µM (inactive) in assay [4]; 15.2 µM (inactive) in assay [5]. In addition, the GI50 in assay [18] is 13.8 µM (inactive); in assay [7] it was 22.5 µM (inactive); in [8], 15.3 µM (inactive); in assay [19], 20.2 µM (inactive); in assay [10] it was 17.8 µM (inactive); in assay [11], 13.9 µM (inactive).
Turning to `Cc1ccccc1NC(=O)C(=O)C(C1OC(=O)c2ccccc21)[N+](=O)[O-]` (stereo not given), the GI50 in [12], in [20], in assay [13], in assay [1], in assay [14] and in [2] was > 100 µM (inactive) throughout. Besides, the GI50 in assay [3], in assay [17], in assay [4], in [5], in assay [18] and in [6] was > 100 µM (inactive) throughout. Also, the GI50 in assay [7], in assay [8], in assay [19], in [9] and in assay [11] was > 100 µM (inactive) throughout.
On to `BrC1=CN2C[n+]3cc(Br)c4ccccc4c3N=C2c2ccccc21`, for which the GI50 in assay [1] is 21.1 µM (inactive); in [15], 2.75 µM (inactive); in assay [3], 8.59 µM (inactive); in [4] it was 10.5 µM (inactive); in [5], 2.92 µM (inactive); in assay [6], 5.92 µM (inactive). Moreover, the GI50 was 4.54 µM (inactive) in [7]; 7.76 µM (inactive) in [8]; 14 µM (inactive) in [9]; 2.88 µM (inactive) in assay [10]; 3.34 µM (inactive) in assay [11].
Take `S=C(NCCCCCCNC(=S)Nc1c2ccccc2nc2ccccc12)Nc1c2ccccc2nc2ccccc12`: the GI50 is > 100 µM (inactive) in [12]; 65.9 µM (inactive) in assay [20]; > 100 µM (inactive) in assay [13]; > 100 µM (inactive) in [1]; > 100 µM (inactive) in [15]; > 100 µM (inactive) in assay [2]. Further, the GI50 in assay [16] is > 100 µM (inactive); in [3] it was 68.4 µM (inactive); in assay [17], 79.4 µM (inactive); in [4] it was 52.4 µM (inactive); in [5], 32.9 µM (inactive); in assay [18] it was > 89.9 µM (inactive). The GI50 in assay [7] is > 91.8 µM (inactive); in assay [8], 70 µM (inactive); in [19], 70.1 µM (inactive); in assay [9], > 100 µM (inactive); in [10] it was > 90.2 µM (inactive); in [11], > 93.1 µM (inactive).
As for `O=C(O)C1CCC(=O)N1S(=O)(=O)c1ccccc1` (stereo not given), the GI50 in assay [12], in assay [20], in [13], in [1], in assay [14] and in assay [15] was > 100 µM (inactive) each time. Besides, the GI50 is > 100 µM (inactive) in [2]; > 100 µM (inactive) in assay [16]; > 100 µM (inactive) in [3]; > 100 µM (inactive) in assay [17]; 99.1 µM (inactive) in assay [4]; > 100 µM (inactive) in assay [5]. The GI50 in assay [18], in assay [7], in [8], in assay [19], in assay [9] and in [10] was > 100 µM (inactive) in each case. Moreover, the GI50 in assay [11] is > 100 µM (inactive).
Take `CO/N=C(\C)c1ccc(Nc2nc3ccccc3c3occc23)cc1`: the GI50 is 14 µM (inactive) in [12]; 14.7 µM (inactive) in assay [1]; 14.6 µM (inactive) in assay [15]; 16.7 µM (inactive) in assay [3]; 13.8 µM (inactive) in assay [4]; 16.3 µM (inactive) in [6]. Besides, the GI50 in assay [7] is 16.9 µM (inactive); in [9], 16.4 µM (inactive); in assay [10], 30.2 µM (inactive); in [11], 15.8 µM (inactive).
On to `CSCSCC(N)CO.Cc1[nH]c(=O)[nH]c(=O)c1/C=C/C(=O)O`, for which the GI50 in assay [12], in assay [20], in [13], in assay [1], in [14] and in assay [15] was > 625 µM (inactive) each time. In addition, the GI50 in [2] was > 625 µM (inactive); in assay [16] it was > 625 µM (inactive); in [3], 582 µM (inactive); in [17] it was > 625 µM (inactive); in assay [4] it was 583 µM (inactive); in assay [5], 447 µM (inactive). In addition, the GI50 in assay [18] is > 625 µM (inactive); in [7], > 625 µM (inactive); in assay [8], > 625 µM (inactive); in [19], > 625 µM (inactive); in [9], 624 µM (inactive); in assay [10], > 625 µM (inactive). Also, in assay [11], the GI50 is > 625 µM (inactive).
For `C=CC1(NC(=O)c2ccccc2)CCC(C(C)(C)C)CC1` (stereo not given), the GI50 is > 47.1 µM (inactive) in assay [12]; 32.2 µM (inactive) in assay [20]; 29.5 µM (inactive) in assay [13]; 32 µM (inactive) in assay [1]; 27.7 µM (inactive) in assay [14]; 34.2 µM (inactive) in assay [15]. Moreover, the GI50 in [2] was 49.3 µM (inactive); in [16], 47.5 µM (inactive); in assay [3], 7.26 µM (inactive); in assay [17] it was 19.1 µM (inactive); in [5], 31.5 µM (inactive); in [18] it was > 43.1 µM (inactive). Besides, the GI50 in assay [7] is 22.5 µM (inactive); in [8], 27.7 µM (inactive); in assay [19], 36.6 µM (inactive); in [10] it was 29.6 µM (inactive); in [11] it was 19.9 µM (inactive).
Turning to `COc1ccccc1-c1cc(O)c2c(C)ccnc2n1`, the GI50 in assay [12] was 37 µM (inactive); in assay [1] it was 29.9 µM (inactive); in assay [15], 39 µM (inactive); in [2], 29.7 µM (inactive); in assay [4], 66.7 µM (inactive); in assay [5], 12.9 µM (inactive). Besides, the GI50 in assay [6] is 42.4 µM (inactive); in [8], 46.2 µM (inactive); in [9], 33 µM (inactive).
